Experimental data reported in patent publication US9309250B2, “Substituted pyrrolo[2,3-b]pyrazines as ATR kinase inhibitors” (Vertex Pharmaceuticals Incorporated, priority 2011, dated 2016).

biological target: T1, full-length ATR (Homo sapiens, UniProt Q13535); experiment: ATR Inhibition Assay (radioactive-phosphate incorporation); type: biochemical; details: Ki(app); 5 nM full-length ATR, 10 μM ATP, 800 μM target peptide, 25° C.
T1 construct: Assays were carried out at 25° C. in the presence of 5 nM full-length ATR
Procedure: Compounds were screened for their ability to inhibit ATR kinase using a radioactive-phosphate incorporation assay. Assays were carried out in a mixture of 50 mM Tris/HCl (pH 7.5), 10 mM MgCl2 and 1 mM DTT. Final substrate concentrations were 10 μM [γ-33P]ATP (3mCi 33P ATP/mmol ATP, Perkin Elmer) and 800 μM target peptide (ASELPASQPQPFSAKKK) (SEQ. ID. NO: 1).
Assays were carried out at 25° C. in the presence of 5 nM full-length ATR. An assay stock buffer solution was prepared containing all of the reagents listed above, with the exception of ATP and the test compound of interest. 13.5 μL of the stock solution was placed in a 96 well plate followed by addition of 2 μL of DMSO stock containing serial dilutions of the test compound (typically starting from a final concentration of 15 μM with 3-fold serial dilutions) in duplicate (final DMSO concentration 7%). The plate was pre-incubated for 10 minutes at 25° C. and the reaction initiated by addition of 15 μL [γ-33P]ATP (final concentration 10 μM).
The reaction was stopped after […] by the addition of 30 μL 0.1M phosphoric acid containing 2 mM ATP. A multiscreen phosphocellulose filter 96-well plate (Millipore, Cat no. MAPHN0B50) was pretreated with 100 μL 0.2M phosphoric acid prior to the addition of 45 μL of the stopped assay mixture. The plate was washed with 5×200 μL 0.2M phosphoric acid. After drying, 100 μL Optiphase ‘SuperMix’ liquid scintillation cocktail (Perkin Elmer) was added to the well prior to scintillation counting (1450 Microbeta Liquid Scintillation Counter, Wallac).
After removing mean background values for all of the data points, Ki(app) data were calculated from non-linear regression analysis of the initial rate data using the Prism software package (GraphPad Prism version 3.0cx for Macintosh, GraphPad Software, San Diego Calif., USA).
Below is a chart showing the ATR Inhibition Ki values of compounds of the disclosure.

T1 sequence (Q13535 whole entry): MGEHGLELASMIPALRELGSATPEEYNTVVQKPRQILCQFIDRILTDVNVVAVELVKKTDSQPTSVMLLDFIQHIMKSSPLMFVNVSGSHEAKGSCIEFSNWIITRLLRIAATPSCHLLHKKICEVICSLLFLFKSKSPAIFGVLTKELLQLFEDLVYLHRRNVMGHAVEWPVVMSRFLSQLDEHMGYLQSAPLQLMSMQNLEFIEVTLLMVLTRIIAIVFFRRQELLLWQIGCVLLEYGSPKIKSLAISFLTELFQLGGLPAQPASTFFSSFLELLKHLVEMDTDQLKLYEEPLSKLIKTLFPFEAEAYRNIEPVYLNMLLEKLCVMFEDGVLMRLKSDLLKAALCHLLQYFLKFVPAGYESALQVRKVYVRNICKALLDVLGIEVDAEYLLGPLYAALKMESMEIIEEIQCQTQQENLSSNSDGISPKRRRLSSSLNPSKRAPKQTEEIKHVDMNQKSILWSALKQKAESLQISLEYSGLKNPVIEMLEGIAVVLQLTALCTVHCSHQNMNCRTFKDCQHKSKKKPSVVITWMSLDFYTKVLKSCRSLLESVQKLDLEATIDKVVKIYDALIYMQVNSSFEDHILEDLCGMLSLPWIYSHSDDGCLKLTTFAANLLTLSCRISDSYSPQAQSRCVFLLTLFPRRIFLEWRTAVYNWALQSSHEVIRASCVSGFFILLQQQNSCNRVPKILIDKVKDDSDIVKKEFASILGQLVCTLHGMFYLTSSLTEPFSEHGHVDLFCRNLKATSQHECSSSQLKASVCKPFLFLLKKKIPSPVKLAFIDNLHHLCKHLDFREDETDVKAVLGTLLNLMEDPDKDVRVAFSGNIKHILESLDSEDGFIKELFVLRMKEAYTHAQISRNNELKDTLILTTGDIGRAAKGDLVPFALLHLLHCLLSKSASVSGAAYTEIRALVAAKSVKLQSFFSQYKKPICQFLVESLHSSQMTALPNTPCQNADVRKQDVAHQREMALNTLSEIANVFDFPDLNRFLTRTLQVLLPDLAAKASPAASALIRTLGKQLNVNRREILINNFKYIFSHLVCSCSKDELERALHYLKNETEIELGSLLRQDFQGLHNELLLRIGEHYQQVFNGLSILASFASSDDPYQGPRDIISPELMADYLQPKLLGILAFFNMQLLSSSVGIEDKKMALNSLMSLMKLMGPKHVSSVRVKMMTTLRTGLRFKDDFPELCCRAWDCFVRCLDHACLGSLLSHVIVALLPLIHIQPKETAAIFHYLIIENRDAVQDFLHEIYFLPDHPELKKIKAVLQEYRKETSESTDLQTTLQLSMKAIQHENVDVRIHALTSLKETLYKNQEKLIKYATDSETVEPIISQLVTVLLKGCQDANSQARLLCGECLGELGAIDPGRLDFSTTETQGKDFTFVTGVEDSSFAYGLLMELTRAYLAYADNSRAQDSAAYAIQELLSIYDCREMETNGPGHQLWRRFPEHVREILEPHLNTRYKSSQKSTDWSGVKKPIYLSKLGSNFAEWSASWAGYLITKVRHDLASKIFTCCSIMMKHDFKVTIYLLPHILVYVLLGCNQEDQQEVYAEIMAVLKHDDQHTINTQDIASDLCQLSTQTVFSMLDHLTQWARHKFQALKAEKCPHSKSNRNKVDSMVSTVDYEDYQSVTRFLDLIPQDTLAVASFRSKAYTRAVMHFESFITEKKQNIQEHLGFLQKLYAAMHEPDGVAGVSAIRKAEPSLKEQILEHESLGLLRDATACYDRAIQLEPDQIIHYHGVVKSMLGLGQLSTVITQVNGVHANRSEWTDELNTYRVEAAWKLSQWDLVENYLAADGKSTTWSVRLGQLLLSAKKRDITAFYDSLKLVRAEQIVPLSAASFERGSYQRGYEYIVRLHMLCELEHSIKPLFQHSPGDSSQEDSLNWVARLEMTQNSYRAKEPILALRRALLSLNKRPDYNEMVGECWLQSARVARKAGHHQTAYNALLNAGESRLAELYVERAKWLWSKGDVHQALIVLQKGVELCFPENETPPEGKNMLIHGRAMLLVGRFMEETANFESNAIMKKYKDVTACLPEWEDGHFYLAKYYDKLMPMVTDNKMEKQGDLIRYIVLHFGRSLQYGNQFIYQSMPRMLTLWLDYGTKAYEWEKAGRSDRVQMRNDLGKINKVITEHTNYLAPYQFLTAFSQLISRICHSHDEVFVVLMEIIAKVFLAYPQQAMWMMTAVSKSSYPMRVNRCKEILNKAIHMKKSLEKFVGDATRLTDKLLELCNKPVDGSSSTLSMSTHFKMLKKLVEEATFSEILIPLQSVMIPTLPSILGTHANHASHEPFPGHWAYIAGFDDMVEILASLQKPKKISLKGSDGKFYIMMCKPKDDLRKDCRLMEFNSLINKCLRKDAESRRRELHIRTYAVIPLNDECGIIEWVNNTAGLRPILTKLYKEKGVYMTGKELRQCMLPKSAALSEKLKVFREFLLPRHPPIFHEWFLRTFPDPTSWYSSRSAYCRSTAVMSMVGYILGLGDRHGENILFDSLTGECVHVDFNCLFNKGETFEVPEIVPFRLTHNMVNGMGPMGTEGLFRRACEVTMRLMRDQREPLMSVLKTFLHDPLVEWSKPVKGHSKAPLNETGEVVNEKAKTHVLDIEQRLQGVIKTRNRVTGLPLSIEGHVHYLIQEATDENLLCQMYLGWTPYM

Row | Ki | SMILES
1 | 50 to 100 nM | CC(C)S(=O)(=O)c1ccc(-c2cnc3[nH]cc(N4Cc5c(Cl)cccc5C4=O)c3n2)cc1 [Compound I-11, 4-chloro-2-(2-(4-(isopropylsulfonyl)phenyl)-5H-pyrrolo[2,3-b]pyrazin-7-yl)isoindolin-1-one]
2 | ≤ 50 nM | O=C1c2c(Cl)cccc2CN1c1c[nH]c2ncc(-c3ccc(S(=O)(=O)C4CCNCC4)cc3)nc12 [Compound I-23, 7-chloro-2-(2-(4-(piperidin-4-ylsulfonyl)phenyl)-5H-pyrrolo[2,3-b]pyrazin-7-yl)isoindolin-1-one]
3 | ≤ 50 nM | CC(C)S(=O)(=O)c1ccc(-c2cnc3[nH]cc(N4Cc5cc(N6CCNCC6)ccc5C4=O)c3n2)cc1 [Compound I-28, 2-(2-(4-(isopropylsulfonyl)phenyl)-5H-pyrrolo[2,3-b]pyrazin-7-yl)-5-(piperazin-1-yl)isoindolin-1-one]
4 | ≤ 50 nM | CC(C)S(=O)(=O)c1ccc(-c2cnc3[nH]cc(N4Cc5ccc(CN)cc5C4=O)c3n2)cc1 [Compound I-20, 6-(aminomethyl)-2-(2-(4-(isopropylsulfonyl)phenyl)-5H-pyrrolo[2,3-b]pyrazin-7-yl)isoindolin-1-one]
5 | ≤ 50 nM | CC(C)S(=O)(=O)c1ccc(-c2cnc3[nH]cc(N4Cc5cc(-c6ccn[nH]6)ccc5C4=O)c3n2)cc1 [Compound I-43, 2-(2-(4-(isopropylsulfonyl)phenyl)-5H-pyrrolo[2,3-b]pyrazin-7-yl)-5-(1H-pyrazol-5-yl)isoindolin-1-one]
6 | ≤ 50 nM | CC(C)S(=O)(=O)c1ccc(-c2cnc3[nH]cc(N4Cc5cc(N6CCCC(N)C6)ccc5C4=O)c3n2)cc1 (centres unmarked) [Compound I-30, 5-(3-aminopiperidin-1-yl)-2-(2-(4-(isopropylsulfonyl)phenyl)-5H-pyrrolo[2,3-b]pyrazin-7-yl)isoindolin-1-one]
7 | ≤ 50 nM | CC(C)S(=O)(=O)c1ccc(-c2cnc3[nH]cc(N4Cc5ccc(NCCN(C)C)cc5C4=O)c3n2)cc1 [Compound I-26, 6-((2-(dimethylamino)ethyl)amino)-2-(2-(4-(isopropylsulfonyl)phenyl)-5H-pyrrolo[2,3-b]pyrazin-7-yl)isoindolin-1-one]
8 | ≤ 50 nM | CC(C)S(=O)(=O)c1ccc(-c2cnc3[nH]cc(N4Cc5cc(N6CC[C@@H](CN)C6)ccc5C4=O)c3n2)cc1 [Compound I-35, (S)-5-(3-(aminomethyl)pyrrolidin-1-yl)-2-(2-(4-(isopropylsulfonyl)phenyl)-5H-pyrrolo[2,3-b]pyrazin-7-yl)isoindolin-1-one]
9 | ≤ 50 nM | CC1c2ccccc2C(=O)N1c1c[nH]c2ncc(-c3ccc(S(=O)(=O)C(C)C)cc3)nc12 (centres unmarked) [Compound I-3, 2-(2-(4-(isopropylsulfonyl)phenyl)-5H-pyrrolo[2,3-b]pyrazin-7-yl)-3-methylisoindolin-1-one]
10 | ≤ 50 nM | O=C1c2ccccc2CN1c1c[nH]c2ncc(-c3ccc(S(=O)(=O)C4CCCNC4)cc3)nc12 (centres unmarked) [Compound I-8, 2-(2-(4-(piperidin-3-ylsulfonyl)phenyl)-5H-pyrrolo[2,3-b]pyrazin-7-yl)isoindolin-1-one]
11 | ≤ 50 nM | CC(C)S(=O)(=O)c1ccc(-c2cnc3[nH]cc(N4Cc5cc(NCCN)ccc5C4=O)c3n2)cc1 [Compound I-34, 5-((2-aminoethyl)amino)-2-(2-(4-(isopropylsulfonyl)phenyl)-5H-pyrrolo[2,3-b]pyrazin-7-yl)isoindolin-1-one]
12 | ≤ 50 nM | O=C1c2ccccc2CN1c1c[nH]c2ncc(-c3ccc(S(=O)(=O)C4COC4)cc3)nc12 [Compound I-5, 2-(2-(4-(oxetan-3-ylsulfonyl)phenyl)-5H-pyrrolo[2,3-b]pyrazin-7-yl)isoindolin-1-one]
13 | ≤ 50 nM | CC(C)S(=O)(=O)c1ccc(-c2cnc3[nH]cc(N4Cc5cccc(N)c5C4=O)c3n2)cc1 [Compound I-21, 7-amino-2-(2-(4-(isopropylsulfonyl)phenyl)-5H-pyrrolo[2,3-b]pyrazin-7-yl)isoindolin-1-one]
14 | 50 to 100 nM | CNc1cccc2c1C(=O)N(c1c[nH]c3ncc(-c4ccc(S(=O)(=O)C(C)C)cc4)nc13)C2 [Compound I-44, 2-(2-(4-(isopropylsulfonyl)phenyl)-5H-pyrrolo[2,3-b]pyrazin-7-yl)-7-(methylamino)isoindolin-1-one]
15 | ≤ 50 nM | CC(C)S(=O)(=O)c1ccc(-c2cnc3[nH]cc(N4Cc5ccc(N6CC[C@H](N)C6)cc5C4=O)c3n2)cc1 [Compound I-27, (S)-6-(3-aminopyrrolidin-1-yl)-2-(2-(4-(isopropylsulfonyl)phenyl)-5H-pyrrolo[2,3-b]pyrazin-7-yl)isoindolin-1-one]
16 | 50 to 100 nM | CN(C)C(=O)c1ccc(-c2cnc3[nH]cc(N4Cc5ccccc5C4=O)c3n2)cc1 [Compound I-4, N,N-dimethyl-4-(7-(1-oxoisoindolin-2-yl)-5H-pyrrolo[2,3-b]pyrazin-2-yl)benzamide]
17 | ≤ 50 nM | CC(C)S(=O)(=O)c1ccc(-c2cnc3[nH]cc(N4Cc5cccc(Cl)c5C4=O)c3n2)cc1 [Compound I-12, 7-chloro-2-(2-(4-(isopropylsulfonyl)phenyl)-5H-pyrrolo[2,3-b]pyrazin-7-yl)isoindolin-1-one]
18 | ≤ 50 nM | CC(C)S(=O)(=O)c1ccc(-c2cnc3[nH]cc(N4Cc5cc(N6CCCNCC6)ccc5C4=O)c3n2)cc1 [Compound I-38, 5-(1,4-diazepan-1-yl)-2-(2-(4-(isopropylsulfonyl)phenyl)-5H-pyrrolo[2,3-b]pyrazin-7-yl)isoindolin-1-one]
19 | ≤ 50 nM | CC(C)S(=O)(=O)c1ccc(-c2cnc3[nH]cc(N4Cc5ccccc5C4=O)c3n2)cc1 [Compound I-1, 2-(2-(4-(isopropylsulfonyl)phenyl)-5H-pyrrolo[2,3-b]pyrazin-7-yl)isoindolin-1-one]
20 | 100 to 250 nM | CC(C)S(=O)(=O)c1ccc(-c2cnc3[nH]cc(N4Cc5cc(CN)ccc5C4=O)c3n2)cc1 [Compound I-15, 5-(aminomethyl)-2-(2-(4-(isopropylsulfonyl)phenyl)-5H-pyrrolo[2,3-b]pyrazin-7-yl)isoindolin-1-one]
21 | ≤ 50 nM | CC(C)S(=O)(=O)c1ccc(-c2cnc3[nH]cc(N4Cc5c(CN)cccc5C4=O)c3n2)cc1 [Compound I-17, 4-(aminomethyl)-2-(2-(4-(isopropylsulfonyl)phenyl)-5H-pyrrolo[2,3-b]pyrazin-7-yl)isoindolin-1-one]
22 | ≤ 50 nM | CC(C)S(=O)(=O)c1ccc(-c2cnc3[nH]cc(N4Cc5cccc([N+](=O)[O-])c5C4=O)c3n2)cc1 [Compound I-14, 2-(2-(4-(isopropylsulfonyl)phenyl)-5H-pyrrolo[2,3-b]pyrazin-7-yl)-7-nitroisoindolin-1-one]
23 | ≤ 50 nM | CC(C)S(=O)(=O)c1ccc(-c2cnc3[nH]cc(N4Cc5cc(NCCN6CCOCC6)ccc5C4=O)c3n2)cc1 [Compound I-32, 2-(2-(4-(isopropylsulfonyl)phenyl)-5H-pyrrolo[2,3-b]pyrazin-7-yl)-5-((2-morpholinoethyl)amino)isoindolin-1-one]
24 | 50 to 100 nM | CC(C)S(=O)(=O)c1ccc(-c2cnc3[nH]cc(N4Cc5c(C#N)cccc5C4=O)c3n2)cc1 [Compound I-16, 2-(2-(4-(isopropylsulfonyl)phenyl)-5H-pyrrolo[2,3-b]pyrazin-7-yl)-1-oxoisoindoline-4-carbonitrile]
25 | 100 to 250 nM | CC(C)S(=O)(=O)c1ccc(-c2cnc3[nH]cc(N4CCc5ccccc5C4=O)c3n2)cc1 [Compound I-2, 2-(2-(4-(isopropylsulfonyl)phenyl)-5H-pyrrolo[2,3-b]pyrazin-7-yl)-3,4-dihydroisoquinolin-1(2H)-one]
26 | ≤ 50 nM | CC(C)S(=O)(=O)c1ccc(-c2cnc3[nH]cc(N4Cc5cc(N6CC[C@@H](N)C6)ccc5C4=O)c3n2)cc1 [Compound I-42, (R)-5-(3-aminopyrrolidin-1-yl)-2-(2-(4-(isopropylsulfonyl)phenyl)-5H-pyrrolo[2,3-b]pyrazin-7-yl)isoindolin-1-one]
27 | ≤ 50 nM | CC(C)S(=O)(=O)c1ccc(-c2cnc3[nH]cc(N4Cc5cccc(C#N)c5C4=O)c3n2)cc1 [Compound I-18, 2-(2-(4-(isopropylsulfonyl)phenyl)-5H-pyrrolo[2,3-b]pyrazin-7-yl)-3-oxoisoindoline-4-carbonitrile]

Row | SMILES | Ki
28 | N#CC1(c2cc(-c3cnc4[nH]cc(N5Cc6ccccc6C5=O)c4n3)ccn2)CN2CCC1CC2 (centres unmarked) [Compound I-7, 3-(4-(7-(1-oxoisoindolin-2-yl)-5H-pyrrolo[2,3-b]pyrazin-2-yl)pyridin-2-yl)quinuclidine-3-carbonitrile] | ≤ 50 nM

same assay, conditions: numeric bound printed among class symbols; Ki(app); 5 nM full-length ATR, 10 μM ATP, 25° C.

Row | Ki | SMILES
29 | > 4000 nM | CC(C)S(=O)(=O)c1ccc(-c2cnc3[nH]cc(N4Cc5ccc(C#N)cc5C4=O)c3n2)cc1 [Compound I-13, 2-(2-(4-(isopropylsulfonyl)phenyl)-5H-pyrrolo[2,3-b]pyrazin-7-yl)-3-oxoisoindoline-5-carbonitrile]
